Data reported in PubChem BioAssay AID651650 (Sanford-Burnham Center for Chemical Genomics, 2012).
Active and inactive are the calls of the source.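 Rule for the calls: active = mean IC50 below 20 µM in each of the two panels, so potent in both; inactive = the rest.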

Molecular target: Neuropilin-1 (Homo sapiens) (UniProt O14786)
Experiment: NRP-1 b1b2 CendR peptide binding inhibitors, dose response, biochemical, FP and AlphaScreen panel (AID 651650)
Settings: NRP-1 b1b2 / RPARPAR peptide binding, FP or AlphaScreen
[1] = AlphaScreen, run 1, individual panel run IC50
[2] = FP, run 1, individual panel run IC50
[3] = FP, run 2, individual panel run IC50

Chain of Neuropilin-1 (Homo sapiens) (O14786 whole entry, looked up): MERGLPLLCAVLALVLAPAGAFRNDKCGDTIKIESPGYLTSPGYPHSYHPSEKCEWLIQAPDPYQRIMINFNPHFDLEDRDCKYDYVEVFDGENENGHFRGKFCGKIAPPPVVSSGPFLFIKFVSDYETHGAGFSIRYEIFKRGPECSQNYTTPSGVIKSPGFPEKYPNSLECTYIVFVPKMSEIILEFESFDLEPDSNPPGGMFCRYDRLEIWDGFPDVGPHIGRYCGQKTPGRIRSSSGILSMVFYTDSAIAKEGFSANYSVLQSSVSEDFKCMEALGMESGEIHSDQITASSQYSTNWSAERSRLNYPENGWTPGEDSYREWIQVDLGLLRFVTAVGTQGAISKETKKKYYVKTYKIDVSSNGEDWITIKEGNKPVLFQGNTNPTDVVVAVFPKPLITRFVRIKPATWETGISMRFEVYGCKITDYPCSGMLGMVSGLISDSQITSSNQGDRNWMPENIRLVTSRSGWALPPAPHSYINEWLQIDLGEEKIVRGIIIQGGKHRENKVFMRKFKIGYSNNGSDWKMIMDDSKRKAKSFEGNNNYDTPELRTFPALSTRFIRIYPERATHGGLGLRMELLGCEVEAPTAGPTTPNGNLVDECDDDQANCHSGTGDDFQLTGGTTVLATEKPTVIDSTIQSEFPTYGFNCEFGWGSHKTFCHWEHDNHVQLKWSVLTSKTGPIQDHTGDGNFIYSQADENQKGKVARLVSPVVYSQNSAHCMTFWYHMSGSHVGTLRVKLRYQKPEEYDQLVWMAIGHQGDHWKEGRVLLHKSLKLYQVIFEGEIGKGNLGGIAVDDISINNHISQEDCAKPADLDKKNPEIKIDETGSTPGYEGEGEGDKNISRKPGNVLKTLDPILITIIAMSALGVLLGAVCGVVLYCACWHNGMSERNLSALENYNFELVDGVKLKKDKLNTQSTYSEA

Structure (SMILES) | IC50 (AlphaScreen, mean of runs) | IC50 [1] | IC50 (FP, mean of runs) | IC50 [2] | IC50 [3]
Cc1ccc(C(=O)N/C(=C\c2sccc2C)C(=O)NCc2ccco2)cc1 | inactive | 92 µM | > 95 µM (inactive) | > 95 µM | > 95 µM
O=C(COc1cc(Cl)c(Cl)cc1Cl)Nc1ccc([N+](=O)[O-])cc1Cl | > 100 µM (inactive) | > 100 µM | > 95 µM (inactive) | > 95 µM | > 95 µM
Cc1nc(SCc2ccc(C(=O)O)cc2)nc2c1CCCC2 | > 100 µM (inactive) | > 100 µM | > 95 µM (inactive) | > 95 µM | > 95 µM
CC(C)(C)OC(=O)NCc1ccc(CNC(=O)c2nc[nH]c2C(=O)N2CCN(C(=O)OC(C)(C)C)CC2)cc1 | > 100 µM (inactive) | > 100 µM | > 95 µM (inactive) | > 95 µM | > 95 µM
Cc1ccccc1S(=O)(=O)Nc1nc2ccccc2nc1NCCO | > 100 µM (inactive) | > 100 µM | > 95 µM (inactive) | > 95 µM | > 95 µM
Cn1c(=O)c2[nH]c(NCCCN3CCOCC3)nc2n(C)c1=O | > 100 µM (inactive) | > 100 µM | inactive | > 95 µM | 56.1 µM
COc1cc(C(=O)OCCCOC(=O)c2cc(OC)c(OC)c(OC)c2)cc(OC)c1OC | > 100 µM (inactive) | > 100 µM | > 95 µM (inactive) | > 95 µM | > 95 µM
CCN(Cc1ccncc1)C(=O)c1cc(COc2ccc(F)cc2F)on1 | > 100 µM (inactive) | > 100 µM | > 95 µM (inactive) | > 95 µM | > 95 µM
Cc1ccc(-n2c(-c3ccco3)nc3c(cnn3-c3ccc(C)cc3)c2=O)cc1 | > 100 µM (inactive) | > 100 µM | inactive | 39.7 µM | 36.3 µM
Cc1ccc(CN(CC(=O)NC2CCCCC2)C(=O)c2csnn2)cc1 | > 100 µM (inactive) | > 100 µM | > 95 µM (inactive) | > 95 µM | > 95 µM
CCn1ncc(Br)c1C(=O)N(C)C12CC3CC(CC(C3)C1)C2 | > 100 µM (inactive) | > 100 µM | > 95 µM (inactive) | > 95 µM | > 95 µM
O=[N+]([O-])c1ccc(Nc2nc(NC3CCCCC3)nc(N3CCCC3)n2)cc1 | > 100 µM (inactive) | > 100 µM | > 95 µM (inactive) | > 95 µM | > 95 µM
Cc1cc2c(cc1C)NC(c1nc3ccccc3[nH]1)C1=C(CC(C)(C)CC1=O)N2 (stereo not given) | > 100 µM (inactive) | > 100 µM | > 95 µM (inactive) | > 95 µM | > 95 µM
C=C1CCN(C(C(=O)OC)C(C)C)S(=O)(=O)c2ccc(F)cc21 (stereo not given) | > 100 µM (inactive) | > 100 µM | > 95 µM (inactive) | > 95 µM | > 95 µM
O=C(c1ncn(Cc2ccccc2)c1C(=O)N1CCc2ccccc2C1)N1CCc2ccccc2C1 | > 100 µM (inactive) | > 100 µM | > 95 µM (inactive) | > 95 µM | > 95 µM
COCc1cccc(-c2csc(C(C)(O)c3ccccc3)n2)c1 (stereo not given) | > 100 µM (inactive) | > 100 µM | > 95 µM (inactive) | > 95 µM | > 95 µM
O=C(CSc1nnc(CNC(=O)C23CC4CC(CC(C4)C2)C3)n1-c1ccccc1)Nc1ccc(F)cc1 | > 100 µM (inactive) | > 100 µM | > 95 µM (inactive) | > 95 µM | > 95 µM
Cc1ccc(NC(=S)Nc2cccc3ccccc23)cc1 | > 100 µM (inactive) | > 100 µM | > 95 µM (inactive) | > 95 µM | > 95 µM
NC(N)=NCCC[C@H](NC(=O)OCc1ccccc1)C(=O)O | > 100 µM (inactive) | > 100 µM | > 95 µM (inactive) | > 95 µM | > 95 µM
C=CCn1c(SCC(=O)Nc2ncc(Cc3ccc(Br)cc3)s2)nnc1-c1ccncc1 | > 100 µM (inactive) | > 100 µM | > 95 µM (inactive) | > 95 µM | > 95 µM
N=C1C(=O)OCC1c1cc(Cl)ccc1NC(=O)Nc1ccccc1 (stereo not given) | inactive | 90.5 µM | > 95 µM (inactive) | > 95 µM | > 95 µM
O=C(COc1ccc(Br)cc1CO)Nc1ccc(F)cc1 | > 100 µM (inactive) | > 100 µM | > 95 µM (inactive) | > 95 µM | > 95 µM
Oc1ccccc1-c1ccn[nH]1 | > 100 µM (inactive) | > 100 µM | > 95 µM (inactive) | > 95 µM | > 95 µM

Structure (SMILES) | IC50 (AlphaScreen, mean of runs) | IC50 [1] | IC50 (FP, mean of runs) | IC50 [2] | IC50 [3]
O=C(O)C1CCN(C(=O)c2ccc(Cl)cc2)CC1 | > 100 µM (inactive) | > 100 µM | > 95 µM (inactive) | > 95 µM | > 95 µM
Cc1ccc(Cl)c(NC(=O)CSc2cccc[n+]2[O-])c1Cl | > 100 µM (inactive) | > 100 µM | > 95 µM (inactive) | > 95 µM | > 95 µM
O=C1CCCN1CCCNc1nc(NCc2cccs2)nc2ccsc12 | inactive | 28 µM | > 95 µM (inactive) | > 95 µM | > 95 µM
Cc1ccccc1-c1cnc(C(O)c2ccc(F)c(F)c2)[nH]1 (stereo not given) | > 100 µM (inactive) | > 100 µM | > 95 µM (inactive) | > 95 µM | > 95 µM
CN(C)Cc1cc(C(F)(F)F)ccc1C(O)(c1ccccc1)c1ccccc1 | > 100 µM (inactive) | > 100 µM | > 95 µM (inactive) | > 95 µM | > 95 µM
C=C(C)C1CC=C(C)/C(=N\NC(=O)CNc2ccccc2OC)C1 (stereo not given) | > 100 µM (inactive) | > 100 µM | > 95 µM (inactive) | > 95 µM | > 95 µM
Cc1nc2c(OCCC3CCCCC3)cccn2c1N(C)C(=O)CCC1CCCC1 | > 100 µM (inactive) | > 100 µM | > 95 µM (inactive) | > 95 µM | > 95 µM
Cc1cc2cc(CNC(=O)c3ccco3)ccc2n1C | > 100 µM (inactive) | > 100 µM | > 95 µM (inactive) | > 95 µM | > 95 µM
Cc1ccc2cc(CN(c3ccccc3C)S(=O)(=O)c3ccccc3)c(=O)[nH]c2c1 | > 100 µM (inactive) | > 100 µM | > 95 µM (inactive) | > 95 µM | > 95 µM
O=S1(=O)CCOC[C@H](Cc2ccccc2)N1Cc1ccccc1F | > 100 µM (inactive) | > 100 µM | > 95 µM (inactive) | > 95 µM | > 95 µM
Cc1ccc(/C=N/Nc2nc3ccccc3[nH]2)s1 | > 100 µM (inactive) | > 100 µM | > 95 µM (inactive) | > 95 µM | > 95 µM
NCCCC[C@H]1CN=C(N)N1CCC12CC3CC(CC(C3)C1)C2 | inactive | 50.2 µM | > 95 µM (inactive) | > 95 µM | > 95 µM
CSc1ncccc1C(=O)OCC(=O)NC1CCCCC1 | > 100 µM (inactive) | > 100 µM | > 95 µM (inactive) | > 95 µM | > 95 µM
CCC1C2Cc3ccc(O)cc3C1(CC)CCN2C (stereo not given) | > 100 µM (inactive) | > 100 µM | > 95 µM (inactive) | > 95 µM | > 95 µM
Cc1ccccc1/C=C/c1nc2ccccc2c(=O)n1CCc1ccccc1 | > 100 µM (inactive) | > 100 µM | > 95 µM (inactive) | > 95 µM | > 95 µM
O=C(O)c1ccccc1CSc1ccccn1 | 16.5 µM | 16.5 µM | > 95 µM (inactive) | > 95 µM | > 95 µM
Cc1ccc(C(=O)NCCCc2ccccc2)c(C)c1 | > 100 µM (inactive) | > 100 µM | > 95 µM (inactive) | > 95 µM | > 95 µM
CCOC(=O)N1CCN(C(=O)c2cc3n(n2)C(C(F)(F)F)CC(c2ccc4c(c2)OCO4)N3)CC1 (stereo not given) | > 100 µM (inactive) | > 100 µM | > 95 µM (inactive) | > 95 µM | > 95 µM
COC(=O)c1ccn(C(=O)c2ccc(Cl)cc2)n1 | > 100 µM (inactive) | > 100 µM | > 95 µM (inactive) | > 95 µM | > 95 µM
Cc1onc(-c2ccccc2)c1C(=O)Nc1c(C)n(C)n(-c2ccccc2)c1=O | > 100 µM (inactive) | > 100 µM | > 95 µM (inactive) | > 95 µM | > 95 µM
Cc1cc(NC(=O)CCC(=O)NNC(=O)c2ccc(C(C)(C)C)cc2)no1 | 8.63 µM | 8.63 µM | > 95 µM (inactive) | > 95 µM | > 95 µM
CCOC(=O)N1CCN(C(=O)c2cc(COc3ccc(OC)cc3Cl)on2)CC1 | > 100 µM (inactive) | > 100 µM | > 95 µM (inactive) | > 95 µM | > 95 µM
